The term inhibition denotes how much of the control response was suppressed.

Molecules are shown by their SMILES. Counter-ions that a name gives are not always drawn. Where only a bound is given, the exact number is not on record here.

Our source for the inhibition values is patent US10358436B2, “Kinase inhibitors and method of treating cancer” (University Health Network, priority 2010, dated 2019).

This assay deals with Aurora A (Homo sapiens (Human), UniProt O14965). The assay is described as follows: Aurora A inhibition assay (Z-Lyte). The class given is biochemical.
Sequence of Aurora A (O14965 whole entry): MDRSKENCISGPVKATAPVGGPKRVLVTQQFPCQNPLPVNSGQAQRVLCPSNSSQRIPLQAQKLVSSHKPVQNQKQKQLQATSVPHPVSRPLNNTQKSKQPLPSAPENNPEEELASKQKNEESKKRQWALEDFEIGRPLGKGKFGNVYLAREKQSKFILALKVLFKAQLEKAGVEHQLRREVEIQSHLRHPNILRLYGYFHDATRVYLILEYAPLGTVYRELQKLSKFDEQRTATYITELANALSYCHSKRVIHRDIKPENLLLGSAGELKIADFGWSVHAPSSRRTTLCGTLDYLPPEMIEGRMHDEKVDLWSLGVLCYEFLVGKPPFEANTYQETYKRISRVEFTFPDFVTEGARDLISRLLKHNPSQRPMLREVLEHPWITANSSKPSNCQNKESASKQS

In turn, `COc1ccc2c(c1)[C@]1(C[C@H]1c1ccc3c(-c4ccc(CN5CCN(C)CC5)cc4)n[nH]c3c1)C(=O)N2` (relative stereo) [Example A140, (1R*,2S*)-5′-methoxy-2-(3-(4-((4-methylpiperazin-1-yl)methyl)phenyl)-1H-indazol-6-yl)spiro[cyclopropane-1,3′-indolin]-2′-one bis-2,2,2-trifluoroacetate] registered an inhibition at 1 µM of less than 50%.
For the compound `N#Cc1ccc(/C=C/c2n[nH]c3cc([C@@H]4C[C@@]45C(=O)Nc4ccccc45)ccc23)cc1` (relative stereo) [Example A54, 4-((E)-2-(6-((1R*,2S*)-2′-oxospiro[cyclopropane-1,3′-indoline]-2-yl)-1H-indazol-3-yl)vinyl)benzonitrile], the inhibition at 1 µM is more than 50%.
The value for `COc1ccc2c(c1)[C@]1(C[C@H]1c1ccc3c(/C=C/c4csc(CN5CCOCC5)c4)n[nH]c3c1)C(=O)N2` (relative stereo) [Example A184, (1R*,2S*)-5′-methoxy-2-(3-((E)-2-(5-(morpholinomethyl)thiophen-3-yl)vinyl)-1H-indazol-6-yl)spiro[cyclopropane-1,3′-indolin]-2′-one 2,2,2-trifluoroacetate] was more than 50%.
The value for `COc1ccc2c(c1)[C@]1(C[C@H]1c1ccc3c(-c4ccc(N(C)CCN(C)C)cc4)n[nH]c3c1)C(=O)N2` [Example A129, (1R,2S)-2-(3-(4-((2-(dimethylamino)ethyl)(methyl)amino)phenyl)-1H-indazol-6-yl)-5′-methoxyspiro[cyclopropane-1,3′-indolin]-2′-one 2,2,2-trifluoroacetate] was less than 50%.
Compound `CCc1ccc2c(c1)[C@]1(C[C@H]1c1ccc3c(/C=C/c4ccc(CN(C)C)cc4)n[nH]c3c1)C(=O)N2` (relative stereo) [Example A167, (1R*,2S*)-(E)-2-(3-(4-((dimethylamino)methyl)styryl)-1H-indazol-6-yl)-5′-ethylspiro[cyclopropane-1,3′-indolin]-2′-one 2,2,2-trifluoroacetate] showed an inhibition at 1 µM of more than 50%.
The value for `O=C1Nc2ccccc2[C@@]12C[C@@H]2c1ccc2c(/C=C/c3cccnc3)n[nH]c2c1` [Example A30, (1S,2R)-2-(3-((E)-2-(pyridin-3-yl)vinyl)-1H-indazol-6-yl)spiro[cyclopropane-1,3′-indolin]-2′-one] was more than 50%.
The value for `NC(=O)CN1C(=O)[C@@]2(C[C@H]2c2ccc3c(/C=C/c4ccc(CN5CCCCC5)cc4)n[nH]c3c2)c2ccccc21` (relative stereo) [Example A165, 2-((1R*,2S*)-(E)-2′-oxo-2-(3-(4-(piperidin-1-ylmethyl)styryl)-1H-indazol-6-yl)spiro[cyclopropane-1,3′-indoline]-1′-yl)acetamide 2,2,2-trifluoroacetate] was more than 50%; that for `COc1ccc2c(c1)[C@]1(C[C@H]1c1ccc3c(-c4ccc(N5CCN(C6CCCC6)CC5)cc4)n[nH]c3c1)C(=O)N2` [Example A192, (1R,2S)-2-(3-(4-(4-cyclopentylpiperazin-1-yl)phenyl)-1H-indazol-6-yl)-5′-methoxyspiro[cyclopropane-1,3′-indolin]-2′-one 2,2,2-trifluoroacetate] was less than 50%.
The value for `COc1ccc2c(c1)[C@]1(C[C@H]1c1ccc3c(C#Cc4ccc(CN5CCN(C)CC5)cc4)n[nH]c3c1)C(=O)N2` (relative stereo) [Example A145, (1R*,2S*)-5′-methoxy-2-(3-((4-((4-methylpiperazin-1-yl)methyl)phenyl)ethynyl)-1H-indazol-6-yl)spiro[cyclopropane-1,3′-indolin]-2′-one bis(2,2,2-trifluoroacetate)] was less than 50%; that for `COc1ccc2c(c1)[C@]1(C[C@H]1c1ccc3c(/C=C/c4ccc5c(c4)CCN(C)C5)n[nH]c3c1)C(=O)N2` [Example A75, (1R,2S)-5′-methoxy-2-(3-((E)-2-(2-methyl-1,2,3,4-tetrahydroisoquinolin-6-yl)vinyl)-1H-indazol-6-yl)spiro[cyclopropane-1,3′-indolin]-2′-one 2,2,2-trifluoroacetate salt] was more than 50%.
As to `COc1ccc2c(c1)[C@]1(C[C@H]1c1ccc3c(-c4ccc(N5CCN(C(C)C)CC5)cc4)n[nH]c3c1)C(=O)N2` (relative stereo) [Example A96, (1R*,2S*)-2-(3-(4-(4-isopropylpiperazin-1-yl)phenyl)-1H-indazol-6-yl)-5′-methoxyspiro[cyclopropane-1,3′-indolin]-2′-one], the inhibition at 1 µM is less than 50%.
The value for `O=C1Nc2ccccc2[C@]12C[C@H]2c1ccc2c(/C=C/c3ccccn3)n[nH]c2c1` (relative stereo) [Example A53, (1R*,2S*)-2-(3-((E)-2-(pyridin-2-yl)vinyl)-1H-indazol-6-yl)spiro[cyclopropane-1,3′-indolin]-2′-one] was more than 50%; that for `COc1ccc2c(c1)[C@]1(C[C@H]1c1ccc3c(/C=C/c4ccc(N5CCN(C)CC5)cc4)n[nH]c3c1)C(=O)N2` (relative stereo) [Example A174, (1R*,2S*)-(E)-5′-methoxy-2-(3-(4-(4-methylpiperazin-1-yl)styryl)-1H-indazol-6-yl)spiro[cyclopropane-1,3′-indolin]-2′-one 2,2,2-trifluoroacetate] was more than 50%.
The value for `CN1CCC(Cc2ccc(/C=C/c3n[nH]c4cc([C@@H]5C[C@@]56C(=O)Nc5ccccc56)ccc34)cc2)CC1` [Example A81, (1R,2S)-(E)-2-(3-(4-((l-methylpiperidin-4-yl)methyl)styryl)-1H-indazol-6-yl)spiro[cyclopropane-1,3′-indolin]-2′-one 2,2,2-trifluoroacetate salt] was more than 50%; that for `COc1ccc2c(c1)[C@]1(C[C@H]1c1ccc3c(-c4ccc(N5CCN(CCO)CC5)cc4)n[nH]c3c1)C(=O)N2` [Example A191, (1R,2S)-2-(3-(4-(4-(2-hydroxyethyl)piperazin-1-yl)phenyl)-1H-indazol-6-yl)-5′-methoxyspiro[cyclopropane-1,3′-indolin]-2′-one 2,2,2-trifluoroacetate] was less than 50%.
In turn, `COc1ccc2c(c1)[C@]1(C[C@H]1c1ccc3c(C#Cc4ccc(C=O)cc4)n[nH]c3c1)C(=O)N2` (relative stereo) [Example A137, 4-((6-((1R*,2S*)-5′-methoxy-2′-oxospiro[cyclopropane-1,3′-indoline]-2-yl)-1H-indazol-3-yl)ethynyl)benzaldehyde] gave an inhibition at 1 µM of less than 50%.
The same measure for `CC(C)(c1ccc(/C=C/c2n[nH]c3cc([C@@H]4C[C@@]45C(=O)Nc4ccccc45)ccc23)cc1)N1CCOCC1` [Example A80, (1R,2S)-(E)-2-(3-(4-(2-morpholinopropan-2-yl)styryl)-1H-indazol-6-yl)spiro[cyclopropane-1,3′-indolin]-2′-one 2,2,2-trifluoroacetate salt]: more than 50%.
The same measure for `CN1C(=O)[C@@]2(C[C@H]2c2ccc3c(/C=C/c4ccc(CN5CCOCC5)cc4)n[nH]c3c2)c2ccccc21` (relative stereo) [Example A87, (1R*,2S*)-(E)-1′-methyl-2-(3-(4-(morpholinomethyl)styryl)-1H-indazol-6-yl)spiro[cyclopropane-1,3′-indolin]-2′-one 2,2,2-trifluoroacetate]: more than 50%; for `COc1ccc2c(c1)[C@]1(C[C@H]1c1ccc3c(/C=C/c4ccc(OCCN5CCOCC5)cc4)n[nH]c3c1)C(=O)N2` [Example A194, (1R,2S)-(E)-5′-methoxy-2-(3-(4-(2-morpholinoethoxy)styryl)-1H-indazol-6-yl)spiro[cyclopropane-1,3′-indolin]-2′-one 2,2,2-trifluoroacetate]: more than 50%.
The value for `O=C1Nc2ccccc2[C@]12C[C@H]2c1ccc2c(/C=C/c3ccc4c(c3)CNCCO4)n[nH]c2c1` [Example A113, (1R,2S)-2-(3-((E)-2-(2,3,4,5-tetrahydrobenzo[f][1,4]oxazepin-7-yl)vinyl)-1H-indazol-6-yl)spiro[cyclopropane-1,3′-indolin]-2′-one 2,2,2-trifluoroacetate] was more than 50%; that for `COc1ccc2c(c1)[C@]1(C[C@H]1c1ccc3c(/C=C/c4ccc(OC5CCN(C)CC5)cc4)n[nH]c3c1)C(=O)N2` [Example A79, (1R,2S)-(E)-5′-methoxy-2-(3-(4-(1-methylpiperidin-4-yloxy)styryl)-1H-indazol-6-yl)spiro[cyclopropane-1,3′-indolin]-2′-one 2,2,2-trifluoroacetate salt] was more than 50%; that for `CCN1Cc2ccc(/C=C/c3n[nH]c4cc([C@@H]5C[C@@]56C(=O)Nc5ccc(OC)cc56)ccc34)cc2C1` (relative stereo) [Example A190, (1R*,2S*)-2-(3-((E)-2-(2-ethylisoindolin-5-yl)vinyl)-1H-indazol-6-yl)-5′-methoxyspiro[cyclopropane-1,3′-indolin]-2′-one 2,2,2-trifluoroacetate] was more than 50%.
`COc1ccc2c(c1)[C@]1(C[C@H]1c1ccc3c(/C=C/c4ccc(CN5CCOCC5)cc4)n[nH]c3c1)C(=O)N2` (relative stereo) [Example A41, (1R*,2S*)-(E)-5′-methoxy-2-(3-(4-(morpholinomethyl)styryl)-1H-indazol-6-yl)spiro[cyclopropane-1,3′-indolin]-2′-one 2,2,2-trifluoroacetate]: the inhibition at 1 µM was more than 50%.
The value for `O=C1Nc2ccc(F)cc2[C@]12C[C@H]2c1ccc2c(/C=C/c3ccc(CN4CCOCC4)cc3)n[nH]c2c1` (relative stereo) [Example A219, 1R*,2S*)-(E)-5′-fluoro-2-(3-(4-(morpholinomethyl)styryl-1H-indazol-6-yl)spiro[cyclopropane-1,3′-indolin]-2′-one 2,2,2-trifluoroacetate] was more than 50%.
The value for `Cc1ccc(/C=C/c2n[nH]c3cc([C@@H]4C[C@@]45C(=O)Nc4ccccc45)ccc23)cn1` [Example A150, (1R,2S)-2-(3-((E)-2-(6-methylpyridin-3-yl)vinyl)-1H-indazol-6-yl)spiro[cyclopropane-1,3′-indolin]-2′-one] was more than 50%; that for `O=C1Nc2ccccc2[C@]12C[C@H]2c1ccc2c(/C=C/c3ccc(CN4CCCCC4)cc3)n[nH]c2c1` [Example A58, (1R,2S)-(E)-2-(3-(4-(piperidin-1-ylmethyl)styryl)-1H-indazol-6-yl)spiro[cyclopropane-1,3′-indolin]-2′-one 2,2,2-trifluoroacetate] was more than 50%.
